Results published in patent publication US11286266B2, “1-imidazothiadiazolo-2H-pyrrol-5-one derivatives” (UCB Biopharma SRL, priority 2018, dated 2022).
pKi: −log10 of the molar value. Several values for one entry are separate records, joined by “and”; a condition that tells them apart may be missing. Equal values may be shown once.

What follows are molecules tested against T1, Human SV2A (Homo sapiens, UniProt Q7L0J3) (assay: Binding assay to SV2A (radioligand competition, HEK membranes)). Conditions: human SV2A in HEK membranes, 60 min at 37° C., pIC50 corrected to pKi by Cheng and Prusoff.
T1 construct: expressed in transfected cells; host or cells: human embryonic kidney (HEK) cells; membrane preparations
T1 sequence (Q7L0J3 whole entry): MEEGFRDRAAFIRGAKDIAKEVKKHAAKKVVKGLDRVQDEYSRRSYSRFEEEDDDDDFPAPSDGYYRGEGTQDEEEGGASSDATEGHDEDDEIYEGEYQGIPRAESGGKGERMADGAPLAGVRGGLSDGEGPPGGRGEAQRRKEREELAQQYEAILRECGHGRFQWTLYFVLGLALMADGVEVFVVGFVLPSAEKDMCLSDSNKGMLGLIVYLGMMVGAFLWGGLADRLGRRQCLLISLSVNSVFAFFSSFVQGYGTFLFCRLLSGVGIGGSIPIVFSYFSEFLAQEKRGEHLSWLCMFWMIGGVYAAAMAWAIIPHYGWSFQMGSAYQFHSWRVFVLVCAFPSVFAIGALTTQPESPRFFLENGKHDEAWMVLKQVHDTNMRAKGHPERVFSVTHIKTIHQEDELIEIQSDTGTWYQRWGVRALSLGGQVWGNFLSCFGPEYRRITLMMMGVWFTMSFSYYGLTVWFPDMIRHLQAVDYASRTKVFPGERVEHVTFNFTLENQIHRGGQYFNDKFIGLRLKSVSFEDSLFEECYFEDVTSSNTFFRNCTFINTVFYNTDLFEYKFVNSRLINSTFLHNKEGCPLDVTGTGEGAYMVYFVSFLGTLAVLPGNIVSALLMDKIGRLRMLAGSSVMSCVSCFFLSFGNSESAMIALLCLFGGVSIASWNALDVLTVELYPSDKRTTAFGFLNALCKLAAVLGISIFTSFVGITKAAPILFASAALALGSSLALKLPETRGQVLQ
Protocol: Human SV2A and SV2C proteins were expressed in human embryonic kidney (HEK) cells. HEK SV2A and HEK SV2C membrane preparations were prepared as described in Gillard et al (Eur. J. Pharmacol. 2006, 536, 102-108). To measure affinity of non-labelled compounds, competition experiments were performed as follow: Membranes expressing SV2 proteins (5 to 15 μg proteins per assay) were incubated for 60 min at 37° C. with either [^3H]-2-[4-(3-azidophenyl)-2-oxo-1-pyrrolidinyl]butanamide (5 nM) and/or [^3H]-4R-(2-chloro-2,2-difluoroethyl)-1-{[2-(methoxymethyl)-6-(trifluoromethyl)imidazo[2,1-b][1,3,4]thiadiazol-5-yl]methyl}pyrrolidin-2-one (25 nM) in 0.2 ml of a 50 mM Tris-HCl buffer (pH 7.4) containing 2 mM MgCl2, 0.1% dimethylsulfoxide and ten increasing concentrations of non-labelled test compound (0.1 nM to 10 μM). At the end of the incubation period, the membrane-bound radioligand was recovered by rapid filtration through GF/C glass fiber filters pre-soaked in 0.1% polyethyleneimine. Membranes were washed with at least 4 times the assay volume of ice-cold 50 mM Tris HCl buffer (pH 7.4). The filters were dried and the radioactivity determined by liquid scintillation. […] Measured affinity plC50 values were corrected to pKi according to Cheng and Prusoff (Biochem. Pharmacol. 1973, 22(23), 3099-3108).
In the case of `COCc1nn2c(CN3CC(C4CC4(F)F)=CC3=O)c(C(F)(F)F)nc2s1` (single isomer, unassigned) [Example 17-A, 3-(2,2-difluorocyclopropyl)-1-[[2-(methoxymethyl)-6-(trifluoromethyl)imidazo[2,1-b][1,3,4]thiadiazol-5-yl]methyl]-2H-pyrrol-5-one], the pKi was 8.00 to 8.50. With `COCc1nn2c(CN3CC(C4CC4(F)F)=CC3=O)c(C)nc2s1` (single isomer, unassigned) [Example 18-A, 1-[[2-(methoxymethyl)-6-methyl-imidazo[2,1-b][1,3,4]thiadiazol-5-yl]methyl]-3-[2,2-difluorocyclopropyl]-2H-pyrrol-5-one] the pKi was 7.50 to 8.00. `COCc1nn2c(CN3CC(C4CC4(F)F)=CC3=O)c(C)nc2s1` (single isomer, unassigned) [Example 18-B, 1-[[2-(methoxymethyl)-6-methyl-imidazo[2,1-b][1,3,4]thiadiazol-5-yl]methyl]-3-[2,2-difluorocyclopropyl]-2H-pyrrol-5-one] showed a pKi of 6.50 to 7.50. `COCc1nn2c(CN3CC(C4CC4(F)F)=CC3=O)c(C(F)F)nc2s1` (single isomer, unassigned) [Example 19-A, 1-[[6-(difluoromethyl)-2-(methoxymethyl)imidazo[2,1-b][1,3,4]thiadiazol-5-yl]methyl]-3-[2,2-difluorocyclopropyl]-2H-pyrrol-5-one] showed a pKi of 8.00 to 8.50. Molecule `CCCC1=CC(=O)N(Cc2c(C(F)(F)F)nc3sc(COC)nn23)C1` [Example 1, 1-[[2-(methoxymethyl)-6-(trifluoromethyl)imidazo[2,1-b][1,3,4]thiadiazol-5-yl]methyl]-3-propyl-2H-pyrrol-5-one] has a pKi of 8.00 to 8.50. Work on `COCc1nn2c(CN3CC(CC(F)(F)F)=CC3=O)c(C(F)(F)F)nc2s1` [Example 2, 1-[[2-(methoxymethyl)-6-(trifluoromethyl)imidazo[2,1-b][1,3,4]thiadiazol-5-yl]methyl]-3-(2,2,2-trifluoroethyl)-2H-pyrrol-5-one] yielded a pKi of 7.50 to 8.00. With `COCc1nn2c(CN3CC(CCC(F)(F)F)=CC3=O)c(C(F)(F)F)nc2s1` [Example 3, 1-[[2-(methoxymethyl)-6-(trifluoromethyl)imidazo[2,1-b][1,3,4]thiadiazol-5-yl]methyl]-3-(3,3,3-trifluoropropyl)-2H-pyrrol-5-one] the pKi was 8.00 to 8.50. `CCCC1=CC(=O)N(Cc2c(C)nc3sc(COC)nn23)C1` [Example 4, 1-[[2-(methoxymethyl)-6-methyl-imidazo[2,1-b][1,3,4]thiadiazol-5-yl]methyl]-3-propyl-2H-pyrrol-5-one] gave a pKi of 8.00 to 8.50. `COCc1nn2c(CN3CC(CC(F)(F)F)=CC3=O)c(Cl)nc2s1` [Example 5, 1-[[6-chloro-2-(methoxymethyl)imidazo[2,1-b][1,3,4]thiadiazol-5-yl]methyl]-3-(2,2,2-trifluoroethyl)-2H-pyrrol-5-one] gave a pKi of 7.50 to 8.00. With `CCCC1=CC(=O)N(Cc2c(Cl)nc3sc(COC)nn23)C1` [Example 6, 1-[[6-chloro-2-(methoxymethyl)imidazo[2,1-b][1,3,4]thiadiazol-5-yl]methyl]-3-propyl-2H-pyrrol-5-one] the pKi was 8.00 to 8.50. In the case of `COCc1nn2c(CN3CC(CCC(F)(F)F)=CC3=O)c(Cl)nc2s1` [Example 7, 1-[[6-chloro-2-(methoxymethyl)imidazo[2,1-b][1,3,4]thiadiazol-5-yl]methyl]-3-(3,3,3-trifluoropropyl)-2H-pyrrol-5-one], the pKi was 8.00 to 8.50. In the case of `CCCC1=CC(=O)N(Cc2c(C(F)F)nc3sc(COC)nn23)C1` [Example 8, 1-[[6-(difluoromethyl)-2-(methoxymethyl)imidazo[2,1-b][1,3,4]thiadiazol-5-yl]methyl]-3-propyl-2H-pyrrol-5-one], the pKi was 8.00 to 8.50. For `COCc1nn2c(CN3CC(CC(F)(F)F)=CC3=O)c(C)nc2s1` [Example 9, 1-[[2-(methoxymethyl)-6-methyl-imidazo[2,1-b][1,3,4]thiadiazol-5-yl]methyl]-3-(2,2,2-trifluoroethyl)-2H-pyrrol-5-one], the pKi was 8.00 to 8.50. For `COCc1nn2c(CN3CC(CC(F)(F)F)=CC3=O)c(C(F)F)nc2s1` [Example 10, 1-[[6-(difluoromethyl)-2-(methoxymethyl)imidazo[2,1-b][1,3,4]thiadiazol-5-yl]methyl]-3-(2,2,2-trifluoroethyl)-2H-pyrrol-5-one], the pKi was 8.00 to 8.50. For `COCc1nn2c(CN3CC(CC(F)(F)F)=CC3=O)c(C3(F)CC3)nc2s1` [Example 11, 1-[[6-(1-fluorocyclopropyl)-2-(methoxymethyl)imidazo[2,1-b][1,3,4]thiadiazol-5-yl]methyl]-3-(2,2,2-trifluoroethyl)-2H-pyrrol-5-one], the pKi was 7.50 to 8.00 and 8.00 to 8.50. Work on `COCc1nn2c(CN3CC(CC(F)(F)Cl)=CC3=O)c(C(F)(F)F)nc2s1` [Example 12, 3-(2-chloro-2,2-difluoro-ethyl)-1-[[2-(methoxymethyl)-6-(trifluoromethyl)imidazo[2,1-b][1,3,4]thiadiazol-5-yl]methyl]-2H-pyrrol-5-one] yielded a pKi of 8.00 to 8.50. `COCc1nn2c(CN3CC(CCC(F)(F)F)=CC3=O)c(C)nc2s1` [Example 13, 1-[[2-(methoxymethyl)-6-methyl-imidazo[2,1-b][1,3,4]thiadiazol-5-yl]methyl]-3-(3,3,3-trifluoropropyl)-2H-pyrrol-5-one] gave a pKi of 8.00 to 8.50. With `COCc1nn2c(CN3CC(CCC(F)(F)F)=CC3=O)c(C(F)F)nc2s1` [Example 14, 1-[[6-(difluoromethyl)-2-(methoxymethyl)imidazo[2,1-b][1,3,4]thiadiazol-5-yl]methyl]-3-(3,3,3-trifluoropropyl)-2H-pyrrol-5-one] the pKi was 8.00 to 8.50. With `COCc1nn2c(CN3CC(CC(C)(F)F)=CC3=O)c(C(F)(F)F)nc2s1` [Example 15, 3-(2,2-difluoropropyl)-1-[[2-(methoxymethyl)-6-(trifluoromethyl)imidazo[2,1-b][1,3,4]thiadiazol-5-yl]methyl]-2H-pyrrol-5-one] the pKi was 8.00 to 8.50. For `COCc1nn2c(CN3CC(CC(C)(F)F)=CC3=O)c(C(F)F)nc2s1` [Example 16, 1-[[6-(difluoromethyl)-2-(methoxymethyl)imidazo[2,1-b][1,3,4]thiadiazol-5-yl]methyl]-3-(2,2-difluoropropyl)-2H-pyrrol-5-one], the pKi was 8.00 to 8.50. `COCc1nn2c(CN3CC(CC(C)(F)F)=CC3=O)c(C)nc2s1` [Example 20, 3-(2,2-difluoropropyl)-1-[[2-(methoxymethyl)-6-methyl-imidazo[2,1-b][1,3,4]thiadiazol-5-yl]methyl]-2H-pyrrol-5-one] was tested, and the pKi was 7.50 to 8.00. For `Cc1nc2sc(CO)nn2c1CN1CC(CCC(F)(F)F)=CC1=O` [Example 21, 1-[[2-(hydroxymethyl)-6-methyl-imidazo[2,1-b][1,3,4]thiadiazol-5-yl]methyl]-3-(3,3,3-trifluoropropyl)-2H-pyrrol-5-one], the pKi was 6.50 to 7.50. Work on `O=C1C=C(CCC(F)(F)F)CN1Cc1c(C(F)F)nc2sc(CO)nn12` [Example 22, 1-[[6-(difluoromethyl)-2-(hydroxymethyl)imidazo[2,1-b][1,3,4]thiadiazol-5-yl]methyl]-3-(3,3,3-trifluoropropyl)-2H-pyrrol-5-one] yielded a pKi of 6.50 to 7.50. `O=C1C=C(CC(F)(F)F)CN1Cc1c(C(F)F)nc2sc(CO)nn12` [Example 23, 1-[[6-(difluoromethyl)-2-(hydroxymethyl)imidazo[2,1-b][1,3,4]thiadiazol-5-yl]methyl]-3-(2,2,2-trifluoroethyl)-2H-pyrrol-5-one] gave a pKi of 6.50 to 7.50.
